Measured values published in patent US20230028441A1, “NOVEL HETEROARYL-TRIAZOLE COMPOUNDS AS PESTICIDES” (Bayer Aktiengesellschaft, priority 2019, published 2023).

Key:
Type in all cases: in vivo
[1] = tested on: larvae of the banded cucumber beetle (Diabrotica balteata); experiment: Diabrotica balteata spray test; conditions: 168 h, 100 g/ha (=32 μg/well), after 7 days, wheat seeds, read-out: efficacy (seedlings grown up)
Description: (§1) Solvent: 78.0 parts by weight of acetone • • 1.5 parts by weight of dimethylformamide
(§2) Emulsifier: alkylarylpolyglycol ether
(§3) To produce a suitable preparation of active compound, 1 part by weight of active compound is mixed with the stated amount of solvent, and the concentrate is diluted with water, containing an emulsifier concentration of 1000 ppm, to the desired concentration. Further test concentrations are prepared by dilution with emulsifier containing water.
Soaked wheat seeds (Triticum aestivum) are placed in a multiple well plate filled with agar and some water and are incubated for 1 day to germinate (5 seeds per well). The germinated wheat seeds are sprayed with a test solution containing the desired concentration of the active ingredient. Afterwards each unit is infected with 10-20 larvae of the banded cucumber beetle (Diabrotica balteata).
After 7 days efficacy in % is determined. 100% means all the seedlings have grown up like in the untreated, uninfected control; 0% means none of the seedlings have grown.

[2] = tested on: cattle tick larvae (Rhipicephalus microplus), strain Parkhurst, resistant against synthetic pyrethroids; experiment: Rhipicephalus (Boophilus) microplus in-vitro contact test, larval cattle tick; conditions: 5 μg/cm^2 (=500 g/ha), after 48 hours, read-out: efficacy (larvae dead or moribund)
Description: 9 mg compound is solved in 1 mL acetone and diluted with acetone to the desired concentration. 250 μL of the test solution is filled in 25 mL glass test tubes and homogeneously distributed on the inner walls by rotation and tilting on a shaking device (2 h at 30 rpm). With a compound concentration of 900 ppm, an inner surface of 44.7 cm^2 and a homogeneous distribution, a dose of 5 μg/cm^2 is achieved.
After the solvent has evaporated, each test tube is filled with 20-50 cattle tick larvae (Rhipicephalus microplus), closed with a perforated lid and incubated in a horizontal position at 85% relative humidity and 27° C. in an incubator. After 48 hours efficacy is determined. The larvae are patted on the ground of the tubes and negative geotactic behaviour is recorded.
An efficacy of 100% means all larvae are dead or moribund; 0% means no larvae are dead or moribund.

[3] = tested on: fall armyworm larvae (Spodoptera frugiperda); experiment: Spodoptera frugiperda spray test (maize leaf sections); conditions: 168 h
Description: Solvent: 78.0 parts by weight acetone • 1.5 parts by weight dimethylformamide
as §2
To produce a suitable preparation of active compound, 1 part by weight of active compound is mixed with the stated amount of solvents and is diluted with water, containing an emulsifier concentration of 1000 ppm, to the desired concentration. Further test concentrations are prepared by dilution with emulsifier containing water.
Maize (Zea mays) leaf sections are sprayed with a preparation of the active ingredient of the desired concentration. Once dry, the leaf sections are infested with fall armyworm larvae (Spodoptera frugiperda).
After 7 days mortality in % is determined. 100% means all caterpillars have been killed and 0% means none of the caterpillars have been killed.

[4] = tested on: adult engorged female ticks (Rhipicephalus microplus); experiment: Rhipicephalus (Boophilus) microplus injection test; conditions: 168 h, egg deposition after 7 days, read-out: efficacy (infertile eggs); for pest or weed control at 0.004 mg: 4 μg/animal; for pest or weed control at 0.02 mg: 20 μg/animal
Description: (§4) Solvent: dimethyl sulfoxide
To produce a suitable preparation of active compound, 10 mg of active compound are dissolved in 0.5 mL solvent, and the concentrate is diluted with solvent to the desired concentration.
Five adult engorged female ticks (Rhipicephalus microplus) are injected with 1 μL compound solution into the abdomen. The ticks are transferred into replica plates and incubated in a climate chamber.
After 7 days egg deposition of fertile eggs is monitored. Eggs where fertility is not visible are stored in a climate chamber till hatching after about 42 days. An efficacy of 100% means all eggs are infertile; 0% means all eggs are fertile.

[5] = tested on: adult unfed cat fleas (Ctenocephalides felis); experiment: Ctenocephalides felis oral test; conditions: 48 h, 100 ppm in cattle blood, after 2 days
Description: as §4
To produce a suitable preparation of active compound, 10 mg of active compound are dissolved in 0.5 mL solvent, and the concentrate is diluted with cattle blood to the desired concentration.
Approximately 20 adult unfed cat fleas (Ctenocephalides felis) are placed in flea chambers. The blood chamber, sealed with parafilm on the bottom, are filled with cattle blood supplied with compound solution and placed on the gauze covered top of the flea chamber, so that the fleas are able to suck the blood. The blood chamber is heated to 37° C. whereas the flea chamber is kept at room temperature.
After 2 days mortality in % is determined. 100% means all the fleas have been killed; 0% means none of the fleas have been killed.

[6] = tested on: larvae of the southern green stink bug (Nezara viridula); experiment: Nezara viridula spray test; conditions: in Hordeum vulgare, 96 h
Description: as §1, §2, §3
Barley plants (Hordeum vulgare) infested with larvae of the southern green stink bug (Nezara viridula) are sprayed with a test solution containing the desired concentration of the active ingredient.
After 4 days mortality in % is determined. 100% means all the stink bugs have been killed; 0% means none of the stink bugs have been killed.

Row | SMILES | pest or weed control at 32 µg/disc, 100 g/ha [1] | pest or weed control at 5 µg/cm2 [2] | mortality at 100 g/ha [3] | pest or weed control at 0.004 mg [4] | pest or weed control at 0.02 mg [4] | mortality at 100 ppm [5] | mortality at 500 g/ha [3] | mortality at 100 g/ha [6]
1 | CC(NC(=O)c1cc(C(F)(F)F)cc(C(F)(F)F)c1)c1nc(NC(=O)OC(C)(C)C)nn1-c1ccc(C(=O)N2CCOCC2)cn1 (stereo not shown) [I-113] | 100% | 90% |  |  |  |  |  | 
2 | CC(NC(=O)c1cc(C(F)(F)F)cc(C(F)(F)F)c1)c1nc(N2CCOCC2)nn1-c1ccc(C#N)cn1 (stereo not shown) [I-158] | 100% | 100% | 100% |  |  |  |  | 
3 | CC(NC(=O)c1cc(Cl)cc(S(C)(=O)=O)c1)c1nc(SC(F)(C(F)(F)F)C(F)(F)F)nn1-c1ccc(Cl)cn1 (stereo not shown) [I-069] |  | 100% |  | 100% | 100% |  |  | 
4 | CC(NC(=O)c1cc(Cl)cc(Cl)c1)c1nc(-c2cnccn2)nn1-c1ncccn1 (stereo not shown) [I-046] |  |  |  | 100% | 100% | 100% | 100% | 
5 | CC(NC(=O)c1cc(Cl)cc(C(F)(F)F)c1)c1nc(Cc2ccccc2)nn1-c1ncccn1 (stereo not shown) [I-083] | 100% |  |  |  |  | 90% |  | 
6 | CC(NC(=O)c1cc(Cl)cc(S(C)(=O)=O)c1)c1nc(-c2cnccn2)nn1-c1ccc(Cl)cn1 (stereo not shown) [I-039] |  |  |  | 100% | 80% | 100% |  | 
7 | CC(NC(=O)c1cc(Cl)cc(S(C)(=O)=O)c1)c1nc(NC(=O)C2CC2(F)F)nn1-c1ncccn1 (stereo not shown) [I-021] |  |  |  | 80% |  | 100% |  | 90%
8 | CC(NC(=O)c1cncc(C(F)(F)F)c1)c1nc(-c2cnccn2)nn1-c1ccc(Cl)cn1 (stereo not shown) [I-038] |  |  |  | 100% | 100% | 100% |  | 
9 | CC(NC(=O)c1cc(Br)cc(Br)c1)c1nc(NC(=O)OC(C)(C)C)nn1-c1ccc(C(=O)N2CCOCC2)cn1 (racemic) [I-106, tert-butyl N-[5-[1-[(3,5-dibromobenzoyl)amino]ethyl]-1-[5-(morpholine-4-carbonyl)-2-pyridyl]-1,2,4-triazol-3-yl]carbamate] |  | 80% |  |  |  |  |  | 
10 | CC(NC(=O)c1cc(Cl)nc(C(F)(F)F)c1)c1nc(-c2ncccn2)nn1-c1ncccn1 (stereo not shown) [I-056] |  |  |  | 80% | 100% | 100% |  | 
11 | CC(NC(=O)c1cc(C(F)(F)F)cc(C(F)(F)F)c1)c1nc(Cc2ccccc2)nn1-c1ncccn1 (racemic) [I-082, N-[1-(5-benzyl-2-pyrimidin-2-yl-1,2,4-triazol-3-yl)ethyl]-3,5-bis(trifluoromethyl)benzamide] | 80% |  |  | 100% |  | 100% |  | 
12 | CC(NC(=O)c1cc(Cl)cc(C(F)(F)F)c1)c1nc(-c2cnccn2)nn1-c1ccc(Cl)cn1 (stereo not shown) [I-040] |  | 100% |  | 100% | 100% | 100% |  | 
13 | CC(NC(=O)c1cc(Cl)nc(Cl)c1)c1nc(-c2cnccn2)nn1-c1ccc(Cl)cn1 (stereo not shown) [I-035] |  | 100% |  |  | 100% | 100% |  | 
14 | CC(NC(=O)c1cc(Cl)cc(Cl)c1)c1nc(CS(C)(=O)=O)nn1-c1ccc(Cl)cn1 (stereo not shown) [I-028] |  |  |  | 100% | 100% | 100% |  | 
15 | CC(NC(=O)c1cc(Cl)cc(C(F)(F)F)c1)c1nc(-c2cnccn2)nn1-c1ncccn1 (stereo not shown) [I-047] |  |  |  | 100% | 100% | 100% | 83% | 
16 | CC(NC(=O)c1cc(Cl)nc(Cl)c1)c1nc(-c2cnccn2)nn1-c1ncccn1 (stereo not shown) [I-049] |  |  |  | 80% | 100% | 100% |  | 
17 | CC(NC(=O)c1cncc(C(F)(F)F)c1)c1nc(-c2ccc(Cl)nc2)nn1-c1ncccn1 (stereo not shown) [I-042] |  |  |  |  | 100% | 90% |  | 
18 | CC(NC(=O)c1cc(OC(F)(F)F)cc(C2CC2)c1)c1nc(N)nn1-c1ccc(C#N)cn1 (stereo not shown) [I-122] | 100% | 100% |  |  |  |  |  | 
19 | CC(NC(=O)c1cc(Cl)nc(C(F)(F)F)c1)c1nc(-c2cnccn2)nn1-c1ccc(Cl)cn1 (stereo not shown) [I-037] |  |  |  | 100% | 100% | 90% |  | 
20 | CC(NC(=O)c1cc(Cl)cc(S(C)(=O)=O)c1)c1nc(N)nn1-c1ncccn1 (stereo not shown) [I-008] |  |  |  | 100% |  | 100% |  | 
21 | CC(NC(=O)c1cc(Br)cc(C(F)(F)F)c1)c1nc(-c2cnccn2)nn1-c1ncccn1 (stereo not shown) [I-048] |  |  |  | 100% |  | 100% | 83% | 
22 | CC(NC(=O)c1cc(Cl)nc(C(F)(F)F)c1)c1nc(-c2cnccn2)nn1-c1ncccn1 (stereo not shown) [I-044] |  |  |  | 100% | 100% | 100% |  | 
23 | CC(NC(=O)c1cncc(C(F)(F)F)c1)c1nc(CS(C)(=O)=O)nn1-c1ccc(Cl)cn1 (stereo not shown) [I-030] |  |  |  | 100% | 100% | 100% |  | 
24 | CC(NC(=O)c1cc(OC(F)(F)F)cc(C2CC2)c1)c1nc(N2CCOCC2)nn1-c1ccc(C#N)cn1 (stereo not shown) [I-161] | 100% | 100% |  |  |  |  |  | 
25 | CC(NC(=O)c1cncc(C(F)(F)F)c1)c1nc(-c2cnccn2)nn1-c1ncccn1 (stereo not shown) [I-050] |  |  |  | 100% | 100% | 100% |  | 
26 | CC(=O)Nc1nc(C(C)NC(=O)c2cc(OC(F)(F)F)cc(C3CC3)c2)n(-c2ccc(C#N)cn2)n1 (stereo not shown) [I-124] | 100% | 100% | 100% |  |  |  |  | 
27 | CC(NC(=O)c1cc(Cl)cc(C(F)(F)F)c1)c1nc(SC(F)(C(F)(F)F)C(F)(F)F)nn1-c1ccc(Cl)cn1 (stereo not shown) [I-070] |  | 100% |  | 100% | 100% |  |  | 
